Consider two molecules from patent US20240115546A1, “AGENT FOR PREVENTING OR AMELIORATING PRURITUS” (KAO CORPORATION, priority 2021, published 2024).

One assay addresses T1, C3a receptor (Homo sapiens, UniProt Q16581).
T1 sequence (Q16581 1-482): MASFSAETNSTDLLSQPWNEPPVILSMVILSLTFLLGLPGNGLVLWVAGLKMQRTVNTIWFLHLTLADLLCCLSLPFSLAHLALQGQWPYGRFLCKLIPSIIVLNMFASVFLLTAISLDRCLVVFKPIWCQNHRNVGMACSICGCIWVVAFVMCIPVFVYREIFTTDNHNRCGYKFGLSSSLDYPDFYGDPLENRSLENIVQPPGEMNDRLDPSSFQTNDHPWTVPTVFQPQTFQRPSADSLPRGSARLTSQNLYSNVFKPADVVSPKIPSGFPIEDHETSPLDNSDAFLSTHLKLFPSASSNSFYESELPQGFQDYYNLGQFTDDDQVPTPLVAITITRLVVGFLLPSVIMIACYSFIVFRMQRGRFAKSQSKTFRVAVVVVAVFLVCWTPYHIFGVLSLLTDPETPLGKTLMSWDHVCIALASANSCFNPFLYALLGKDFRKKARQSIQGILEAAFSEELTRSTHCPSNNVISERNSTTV
The assay is described as follows: Ca2+-flux assay for C3a receptor antagonism in transfected HEK293 cells. As to conditions: antagonist 10 nM, mouse TLQP-21 1 μM; HEK293 transfected with C3a receptor and GNA16; Fluo-4; vs control; FIG. 6. Format: cell-based.

For assay [1], the system named is AEW model mice (C57BL/6J). The assay is described as follows: Scratching behavior in AEW model mice given C3a receptor antagonist. The assay is classed as in vivo, mouse. As to conditions: 200 μL subcutaneous, Compound 1 0.5 mg/mL, Compound 2 0.05 mg/mL, once daily for 8 days; measured for 3 hours after last administration; vs solvent alone; FIG. 8. The text has this:
The animals used were male C57BL/6J mice.
Preparation of AEW model: The back of the neck was shaved, and absorbent cotton soaked with a 1:1 (v/v) mixture of acetone and diethyl ether was applied and allowed to stand for 15 seconds. Immediately thereafter, absorbent cotton soaked with water was applied for 30 seconds. This treatment was repeated twice/day (morning and evening) for 7 days.
Compound 1 or Compound 2, whose C3a receptor antagonism was confirmed in Example 4 above, was used as a C3a receptor antagonist. Compound 1 or Compound 2 was dissolved in saline containing 20% polyethylene glycol 400, of which 200 μL was administered subcutaneously to the back of the neck. The control group was administered with the same amount of only the above solvent. The concentration of the C3a receptor antagonist solution was set at 0.5 mg/mL for Compound 1 and 0.05 mg/mL for Compound 2. Sample administration started after the first AEW treatment and was performed at a frequency of once daily for 8 days.
Sixteen hours after the last AEW treatment, the scratching behavior was measured for 3 hours after the last administration of the sample. MicroAct (Neuroscience) was used to measure the scratching behavior.

Assay [2] has as its system AD model mice (NC/Nga, mite allergen-induced). The experiment in a line: Scratching behavior in AD model mice given C3a receptor antagonist. The assay is classed as in vivo, mouse. To be noted: 200 μL subcutaneous, Compound 1 0.5 mg/mL, Compound 2 0.05 mg/mL, three times a week; measured for 3 hours after last administration; vs solvent alone; FIG. 7. The procedure: Seven-week-old female NC/Nga mice were used.
Preparation of AD model mice: The back of the neck was shaved, and 100 mg of an ointment containing mite allergen: Biostir AD (Biostir Inc.) was applied to the back of the neck and auricular region under isoflurane anesthesia for initial sensitization. Four days after the first application of the ointment containing mite allergen, 150 μL of 4% (w/v) SDS solution and 100 mg of ointment containing mite allergen were applied to the back of the neck and auricular region under isoflurane anesthesia. Thereafter, the same procedure was performed four times at a frequency of once every 3 to 4 days to induce AD-like dermatitis.
Compound 1 or Compound 2, whose C3a receptor antagonism was confirmed in Example 4 above, was used as a C3a receptor antagonist. Compound 1 or Compound 2 was dissolved in saline containing 20% polyethylene glycol 400, of which 200 μL was administered subcutaneously to the back of the neck. The control group was administered with the same amount of only the above solvent. The concentration of the C3a receptor antagonist solution was set at 0.5 mg/mL for Compound 1 and 0.05 mg/mL for Compound 2. […]
Four days after the last application of the ointment containing mite allergen, the scratching behavior was measured for 3 hours after the last administration of the sample. […]

As for `N=C(N)NCCC[C@H](NC(=O)c1ccc(C(c2ccccc2)c2ccccc2)s1)C(=O)O` [Compound 1, L-arginine, N2-[[5-(diphenylmethyl)-2-thienyl]carbonyl]], the “Fluorescence intensity due to C3a receptor stimulation by TLQP-21 (Ca2+ influx, integrated over 3 min)” value at C3a receptor is listed as “greatly suppressed”. For the same molecule, the Scratching behavior entry in assay [1] and in assay [2] was “significant decrease” each time.
For `Cc1cc(C(c2ccc(Cl)cc2)c2ccc(Cl)cc2)sc1C(=O)N[C@@H](CCCNC(=N)N)C(=O)O` [Compound 2, L-arginine, N2-[[5-[bis(4-chlorophenyl)methyl]-3-methyl-2-thienyl]carbonyl]], at C3a receptor, the “Fluorescence intensity due to C3a receptor stimulation by TLQP-21 (Ca2+ influx, integrated over 3 min)” value is “greatly suppressed”. For the same molecule, the Scratching behavior entry in assay [1] and in assay [2] was “significant decrease” in each case.
